The values below come from patent US20240132475A1, “SUBSTITUTED PYRAZOLYL COMPOUNDS AS MALT-1 INHIBITORS” (AURIGENE ONCOLOGY LIMITED, priority 2021, published 2024).

Some results are limits rather than exact numbers.

In the assay the target is T1, MALT-1 (Isoform 1) (Homo sapiens, UniProt Q9UDY8).
T1 construct: using recombinant MALT-1 (Isoform 1, aa-840) generated in house; made in house
T1 sequence (Q9UDY8 1-824): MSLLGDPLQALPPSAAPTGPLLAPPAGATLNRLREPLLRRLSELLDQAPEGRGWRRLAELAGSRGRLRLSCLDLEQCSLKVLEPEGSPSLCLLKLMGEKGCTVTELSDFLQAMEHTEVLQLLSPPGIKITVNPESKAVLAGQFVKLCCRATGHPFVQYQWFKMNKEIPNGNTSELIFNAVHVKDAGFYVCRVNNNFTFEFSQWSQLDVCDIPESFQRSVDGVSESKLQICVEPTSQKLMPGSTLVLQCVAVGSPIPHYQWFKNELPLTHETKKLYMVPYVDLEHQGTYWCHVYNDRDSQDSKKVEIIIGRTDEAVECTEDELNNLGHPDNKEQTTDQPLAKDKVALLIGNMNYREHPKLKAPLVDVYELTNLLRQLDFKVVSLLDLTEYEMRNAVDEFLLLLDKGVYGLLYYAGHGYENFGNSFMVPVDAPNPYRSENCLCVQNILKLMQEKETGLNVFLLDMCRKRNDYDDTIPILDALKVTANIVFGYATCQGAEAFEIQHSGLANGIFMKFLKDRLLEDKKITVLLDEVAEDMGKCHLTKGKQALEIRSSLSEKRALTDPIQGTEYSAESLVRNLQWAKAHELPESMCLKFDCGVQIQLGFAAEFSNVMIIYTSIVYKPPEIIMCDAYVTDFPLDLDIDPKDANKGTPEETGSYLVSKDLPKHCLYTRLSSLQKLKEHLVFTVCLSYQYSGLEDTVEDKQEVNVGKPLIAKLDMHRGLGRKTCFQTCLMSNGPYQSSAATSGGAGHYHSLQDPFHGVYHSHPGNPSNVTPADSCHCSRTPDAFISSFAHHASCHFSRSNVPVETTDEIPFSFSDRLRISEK
The assay is described as follows: MALT-1 (Isoform 1) enzyme fluorescent biochemical assay. To be noted: for IC50: dose-response, sigmoidal curve fit, reported as groups A, B, C; for inhibition at 1 µM / Percent Inhibition (1 μM): test compound 1 μM, recombinant MALT-1 1.5 nM; for inhibition at 1 µM: read-out: Percent Inhibition (1 μM). As for the experimental part:
The potency of compounds to inhibit MALT-1 (Isoform 1) enzyme was tested in a Fluorescent assay using recombinant MALT-1 (Isoform 1, aa-840) generated in house. The assay buffer was 50 mM HEPES (pH 7.5), 100 mM NaCl, 10 mM DTT, 1 mM EDTA, 0.9 M sodium citrate, 0.01% CHAPS. 1.5 nM of MALT-1 enzyme was incubated with test compounds ([…]) (1% DMSO) in the presence of buffer for 30 minutes at 30° C. The protease reaction was initiated by adding […] of AC-LRSR-MAC (Peptide International, USA) substrate and incubated for 240 min. After 240 min incubation, fluorescence emission of the samples at 460 nm was measured at an excitation of 355 nm. The percent inhibition was calculated using the following formula: […]. IC50 values were determined by fitting the dose-response data to sigmoidal curve fitting equation using Graph pad prism software V8.
ND represents Not Determined.

In the case of `O=C(Nc1cnc(C(=O)N2CCCC2)c(Cl)c1)c1cnn(Cc2cccc(F)c2Cl)c1C(F)(F)F` [Compound 45, 1-(2-chloro-3-fluorobenzyl)-N-(5-chloro-6-(pyrrolidine-1-carbonyl)pyridin-3-yl)-5-(trifluoromethyl)-1H-pyrazole-4-carboxamide], the IC50 (in general, the concentration that gives 50% inhibition) is above 1000 nM and the inhibition (as a rule, the percentage by which the read-out fell short of the control) at 1 µM was determined as 40%.

Consider `O=C(Nc1cc(C(F)(F)F)cnn1)c1cnn(Cc2cccc(F)c2Cl)c1C(F)(F)F` [Compound 43, 1-(2-chloro-3-fluorobenzyl)-5-(trifluoromethyl)-N-(5-(trifluoromethyl)pyridazin-3-y1)-1H-pyrazole-4-carboxamide], for which the IC50 was above 1000 nM and the inhibition at 1 µM amounted to 13%.

As to `CC(c1cccc(Cl)c1)n1ncc(C(=O)Nc2cnc(-n3nccn3)c(C#N)c2)c1C(F)(F)F` (centres unmarked) [Compound 51, 1-(1-(3-chlorophenyl)ethyl)-N-(5-cyano-6-(2H-1,2,3-triazol-2-y1)pyridin-3-y1)-5-(trifluoromethyl)-1H-pyrazole-4-carboxamide], the IC50 was below 250 nM and the inhibition at 1 µM stood at 100%.

With `CC(c1ccccc1)n1ncc(C(=O)Nc2cnc(-n3nccn3)c(C#N)c2)c1C(F)(F)F` (single isomer, unassigned) [Compound 2a], the IC50 is below 250 nM and the “Percent Inhibition (1 μM)” value came out at 99%.

For `O=C(Nc1ccnc(C(F)(F)F)c1)c1cnn(Cc2cccc(F)c2Cl)c1C(F)(F)F` [Compound 40, 1-(2-chloro-3-fluorobenzyl)-5-(trifluoromethyl)-N-(2-(trifluoromethyl)pyridin-4-y1)-1H-pyrazole-4-carboxamide], the IC50 was 251 to 1000 nM and the inhibition at 1 µM is 75%.

Regarding `CC(c1cccc(Cl)c1)n1ncc(C(=O)Nc2cnc(-n3nccn3)c(Cl)c2)c1C(F)(F)F` (centres unmarked) [Compound 49, N-(5-chloro-6-(2H-1,2,3-triazol-2-yl)pyridin-3-yl)-1-(1-(3-chlorophenyl)ethyl)-5-(trifluoromethyl)-1H-pyrazole-4-carboxamide], the IC50 was in the range of 251 to 1000 nM and the inhibition at 1 µM came out at 88%.

`O=C(Nc1cncnc1)c1cnn(Cc2cccc(F)c2Cl)c1C(F)(F)F` [Compound 41, 1-(2-chloro-3-fluorobenzyl)-N-(pyrimidin-5-y1)-5-(trifluoromethyl)-1H-pyrazole-4-carboxamide]: the IC50 was above 1000 nM and the inhibition at 1 µM is 14%.

As to `CC(c1cccc(F)c1)n1ncc(C(=O)Nc2cnc(-n3nccn3)c(C#N)c2)c1C(F)(F)F` (single isomer, unassigned) [Compound 3b], the IC50 is below 250 nM and the “Percent Inhibition (1 μM)” value was 100%.

As for `COc1ncc(NC(=O)c2cnn(Cc3cccc(F)c3Cl)c2C(F)(F)F)cc1Cl` [Compound 37, 1-(2-chloro-3-fluorobenzyl)-N-(5-chloro-6-methoxypyridin-3-y1)-5-(trifluoromethyl)-1H-pyrazole-4-carboxamide], the IC50 lay within 251 to 1000 nM and the inhibition at 1 µM came out at 81%.

Turning to `O=C(Nc1ccnc(C(F)(F)F)c1)c1cnn(Cc2cccc(F)c2)c1C(F)(F)F` [Compound 19, 1-(3-fluorobenzyl)-5-(trifluoromethyl)-N-(2-(trifluoromethyl)pyridin-4-yl)-1H-pyrazole-4-carboxamide], the IC50 was above 1000 nM and the inhibition at 1 µM was determined as 22%.

Regarding `Cc1c(F)cccc1Cn1ncc(C(=O)Nc2cnc(-n3nccn3)c(C(F)(F)F)c2)c1C(F)(F)F` [Compound 31, N-(6-(2H-1,2,3-triazol-2-y1)-5-(trifluoromethyl)pyridin-3-y1)-1-(3-fluoro-2-methylbenzy1)-5-(trifluoromethyl)-1H-pyrazole-4-carboxamide], the IC50 was below 250 nM and the inhibition at 1 µM was found to be 95%.

As to `N#Cc1cc(NC(=O)c2cnn(Cc3cccc(F)c3Cl)c2C(F)(F)F)cnc1-n1nccn1` [Compound 1, 1-(2-chloro-3-fluorobenzyl)-N-(5-cyano-6-(2H-1,2,3-triazol-2-yl)pyridin-3-yl)-5-(trifluoromethyl)-1H-pyrazole-4-carboxamide], the IC50 was below 250 nM and the inhibition at 1 µM is 100%.

Turning to `COc1c(F)cccc1Cn1ncc(C(=O)Nc2cnc(-n3nccn3)c(C#N)c2)c1C(F)(F)F` [Compound 39, N-(5-cyano-6-(2H-1,2,3-triazol-2-yl)pyridin-3-y1)-1-(3-fluoro-2-methoxybenzyl)-5-(trifluoromethyl)-1H-pyrazole-4-carboxamide], the 50% inhibitory concentration (IC50) is below 250 nM and the inhibition at 1 µM was determined as 100%.

Take `N#Cc1cc(NC(=O)c2cnn(Cc3ccccc3Cl)c2C(F)(F)F)cnc1-n1nccn1` [Compound 20, 1-(2-chlorobenzyl)-N-(5-cyano-6-(2H-1,2,3-triazol-2-y1)pyridin-3-yl)-5-(trifluoromethyl)-1H-pyrazole-4-carboxamide]: the IC50 was above 1000 nM and the inhibition at 1 µM was 46%.

On to `N#Cc1cc(NC(=O)c2cnn(Cc3ccc(F)c(Cl)c3)c2C(F)(F)F)cnc1-n1nccn1` [Compound 21, 1-(3-chloro-4-fluorobenzy1)-N-(5-cyano-6-(2H-1,2,3-triazol-2-yl)pyridin-3-yl)-5-(trifluoromethyl)-1H-pyrazole-4-carboxamide], for which the IC50 was above 1000 nM and the inhibition at 1 µM worked out at 23%.

For `N#Cc1cc(NC(=O)c2cnn(Cc3cccc(F)c3C(F)(F)F)c2C(F)(F)F)cnc1-n1nccn1` [Compound 33, N-(5-cyano-6-(2H-1,2,3-triazol-2-yl)pyridin-3-y1)-1-(3-fluoro-2-(trifluoromethyl)benzy1)-5-(trifluoromethyl)-1H-pyrazole-4-carboxamide], the IC50 is below 250 nM and the inhibition at 1 µM turned out to be 99%.
